The values that follow come from patent US20260159511A1, “SMALL MOLECULE STING ANTAGONISTS” (CURADEV PHARMA PVT. LTD., priority 2021, published 2026).

Where two headings read alike, the source gives them in different places. Bounds are passed on as bounds.

One may read the IC50 as the concentration needed to halve the response being measured.

In the test the test system is IRF pathway in THP1-Dual™ cells, THP-1 (HAQ). Nature of the test: Reporter gene expression assay in THP-1 cells (THP1-Dual, IRF pathway Lucia luciferase reporter, 2′,3′-cGAMP stimulation). It is filed as cell-based, human. The conditions noted are these: read-out: THP-1 (HAQ) Activity (IC50 value range). How it is done:
Reporter Gene Expression Assay in THP-1 Cells
THP1-Dual™ cells (Invivogen) were derived from the human THP-1 monocyte cell line by stable integration of two inducible reporter constructs. As a result, THP1-Dual™ cells allow the simultaneous study of the IRF pathway, by assessing the activity of a secreted luciferase (Lucia) and the NF-κB pathway, by monitoring the activity of secreted SEAP. 5×10^4 THP1-Dual™ cells were seeded in 384-well plates in growth medium and preincubated with novel compounds for 10 minutes followed by stimulation with 5 μM 2′,3′-cGAMP. After 20 hr of stimulation the supernatant was removed and the IRF pathway reporter protein was readily measured in the cell culture supernatant using QUANTI-Luc™ (Invivogen), a luciferase detection reagent on a Spectramax i3X luminometer.
For orientation: A reporter such as luciferase makes a cellular process visible.

The mark [1] stands for this setting: Homo sapiens, THP1-Dual cells preincubated with compound 10 minutes, stimulation with 5 μM 2′,3′-cGAMP for 20 hr, QUANTI-Luc readout of the supernatant.

As to `O=C(Nc1ccc2c(c1)N(Cc1ccccc1)C(=O)CS2)Nc1c[nH]c2ccc(-c3cc(F)cc(F)c3)cc12` [Example 40, 1-(4-benzyl-3-oxo-3,4-dihydro-2H-benzo[b][1,4]thiazin-6-yl)-3-(5-(3,5-difluorophenyl)-1H-indol-3-yl)urea], the IC50 under setting [1] was less than 1000 nM.
Regarding `CC1Sc2ccc(NC(=O)Nc3c[nH]c4ccccc34)cc2N(Cc2ccccc2)C1=O` (stereo not shown) [Example 29, 1-(4-benzyl-2-methyl-3-oxo-3,4-dihydro-2H-benzo[b][1,4]thiazin-6-yl)-3-(1H-indol-3-yl)urea], the IC50 under setting [1] is less than 1000 nM.
For `O=C(Nc1ccc2c(c1)N(Cc1ccccc1)C(=O)CS2)Nc1c[nH]c2ccc(-c3cnsc3)cc12` [Example 42, 1-(4-benzyl-3-oxo-3,4-dihydro-2H-benzo[b][1,4]thiazin-6-yl)-3-(5-(isothiazol-4-yl)-1H-indol-3-yl)urea], under setting [1], the IC50 is less than 1000 nM.
Take `O=C(Nc1ccc2c(c1)N(Cc1ccccc1)C(=O)CS2)Nc1c[nH]c2ccc(-c3ccn[nH]3)cc12` [Example 38, 1-(5-(1H-Pyrazol-5-yl)-1H-indol-3-yl)-3-(4-benzyl-3-oxo-3,4-dihydro-2H-benzo[b][1,4]thiazin-6-yl)urea]: the IC50 (Homo sapiens) was 1000 to 10000 nM.
For the compound `CC1CN(C(=O)c2ccccc2)c2cc(NC(=O)Nc3c[nH]c4ccccc34)ccc2S1` (stereo not shown) [Example 70, 1-(4-Benzoyl-2-methyl-3,4-dihydro-2H-benzo[b][1,4]thiazin-6-yl)-3-(1H-indol-3-yl)urea], under setting [1], the IC50 is less than 1000 nM.
On to `CCn1cc(-c2ccc3[nH]cc(NC(=O)Nc4ccc5c(c4)N(Cc4ccccc4)C(=O)CS5)c3c2)cn1` [Example 47, 1-(4-benzyl-3-oxo-3,4-dihydro-2H-benzo[b][1,4]thiazin-6-yl)-3-(5-(1-ethyl-1H-pyrazol-4-yl)-1H-indol-3-yl)urea], for which, under setting [1], the IC50 was less than 1000 nM.
`O=C(Nc1ccc2c(c1)N(Cc1ccncc1)C(=O)CS2)Nc1c[nH]c2ccccc12` [Example 20, 1-(1H-indol-3-yl)-3-(3-oxo-4-(pyridin-4-ylmethyl)-3,4-dihydro-2H-benzo[b][1,4]thiazin-6-yl)urea]: the IC50 under setting [1] lay in the range of 1000 to 10000 nM.
The same measure, in the same setting: as for `O=C(Nc1ccc2c(c1)N(Cc1cc(F)cc(F)c1)CCS2)Nc1c[nH]c2ccc(F)cc12` [Example 93, 1-(4-(3,5-difluorobenzyl)-3,4-dihydro-2H-benzo[b][1,4]thiazin-6-yl)-3-(5-fluoro-1H-indol-3-yl)urea], the figure is less than 1000 nM; as for `O=C(Nc1ccc2c(c1)N(c1cccc(F)n1)CCS2)Nc1c[nH]c2ccccc12` [Example 106, 1-(4-(6-fluoropyridin-2-yl)-3,4-dihydro-2H-benzo[b][1,4]thiazin-6-yl)-3-(1H-indol-3-yl)urea], less than 1000 nM.
The same measure, in the same setting: then `CC1CN(Cc2c(F)cccc2Cl)c2cc(NC(=O)Nc3c[nH]c4ccccc34)ccc2S1` (stereo not shown) [Example 84, 1-(4-(2-chloro-6-fluorobenzyl)-2-methyl-3,4-dihydro-2H-benzo[b][1,4]thiazin-6-yl)-3-(1H-indol-3-yl)urea], with less than 1000 nM; and `O=C(Nc1ccc2c(c1)N(Cc1ccccc1)C(=O)CS2)Nc1c[nH]c2cccnc12` [Example 17, 1-(4-benzyl-3-oxo-3,4-dihydro-2H-benzo[b][1,4]thiazin-6-yl)-3-(1H-pyrrolo[3,2-b]pyridin-3-yl)urea], with 1000 to 10000 nM; and `O=C(Nc1ccc2c(c1)N(Cc1ccccc1)C(=O)CS2)Nc1c[nH]c2ccc(-c3cnn(CC4CC4)c3)cc12` [Example 60, 1-(4-benzyl-3-oxo-3,4-dihydro-2H-benzo[b][1,4]thiazin-6-yl)-3-(5-(1-(cyclopropylmethyl)-1H-pyrazol-4-yl)-1H-indol-3-yl)urea], with less than 1000 nM.
Still for that read-out and setting: then `O=C(Nc1ccc2c(c1)SCC(=O)N2Cc1ccccc1)Nc1c[nH]c2ccccc12` [Example 7, 1-(4-benzyl-3-oxo-3,4-dihydro-2H-benzo[b][1,4]thiazin-7-yl)-3-(1H-indol-3-yl)urea], with less than 1000 nM; and `COCCn1cc(-c2ccc3[nH]cc(NC(=O)Nc4ccc5c(c4)N(Cc4ccccc4)C(=O)CS5)c3c2)cn1` [Example 49, 1-(4-benzyl-3-oxo-3,4-dihydro-2H-benzo[b][1,4]thiazin-6-yl)-3-(5-(1-(2-methoxyethyl)-1H-pyrazol-4-yl)-1H-indol-3-yl)urea], with 1000 to 10000 nM; and `CC(O)Cn1cc(-c2ccc3[nH]cc(NC(=O)Nc4ccc5c(c4)N(Cc4ccccc4)C(=O)CS5)c3c2)cn1` (stereo not shown) [Example 68, 1-(4-benzyl-3-oxo-3,4-dihydro-2H-benzo[b][1,4]thiazin-6-yl)-3-(5-(1-(2-hydroxypropyl)-1H-pyrazol-4-yl)-1H-indol-3-yl)urea], with 1000 to 10000 nM.
For the compound `CN1C(=O)CSc2ccc(NC(=O)Nc3c[nH]c4ccccc34)cc21` [Example 16, 1-(1H-indol-3-yl)-3-(4-methyl-3-oxo-3,4-dihydro-2H-benzo[b][1,4]thiazin-6-yl)urea], the IC50 under setting [1] was less than 1000 nM.
Still for that read-out and setting: as for `Cc1[nH]c2ccccc2c1NC(=O)Nc1ccc2c(c1)N(Cc1ccccc1)C(=O)CS2` [Example 9, 1-(4-benzyl-3-oxo-3,4-dihydro-2H-benzo[b][1,4]thiazin-6-yl)-3-(2-methyl-1H-indol-3-yl)urea], the figure is 1000 to 10000 nM; as for `O=C(Nc1ccc2c(c1)N(Cc1ccccc1)C(=O)CS2)Nc1c[nH]c2ccc(-c3cccc(C(F)(F)F)c3)cc12` [Example 67, 1-(4-benzyl-3-oxo-3,4-dihydro-2H-benzo[b][1,4]thiazin-6-yl)-3-(5-(3-(trifluoromethyl)phenyl)-1H-indol-3-yl)urea], less than 1000 nM; as for `O=C(Nc1ccc2c(c1)OCCN2Cc1c(F)cccc1Cl)Nc1c[nH]c2ccccc12` [Example 76, 1-(4-(2-chloro-6-fluorobenzyl)-3,4-dihydro-2H-benzo[b][1,4]oxazin-7-yl)-3-(1H-indol-3-yl)urea], less than 1000 nM.
On the same count and under the same terms, then `N#Cc1ccc2[nH]cc(NC(=O)Nc3ccc4c(c3)N(Cc3ccccc3)C(=O)CS4)c2c1` [Example 37, 1-(4-benzyl-3-oxo-3,4-dihydro-2H-benzo[b][1,4]thiazin-6-yl)-3-(5-cyano-1H-indol-3-yl)urea], with less than 1000 nM; and `NC(=O)c1ccccc1CN1CCSc2cc(NC(=O)Nc3c[nH]c4ccccc34)ccc21` [Example 95, 2-((7-(3-(1H-indol-3-yl)ureido)-2,3-dihydro-4H-benzo[b][1,4]thiazin-4-yl)methyl)benzamide], with less than 1000 nM; and `Cc1nc(N2CCSc3ccc(NC(=O)Nc4c[nH]c5ccccc45)cc32)ccc1F` [Example 102, 1-(4-(5-Fluoro-6-methylpyridin-2-yl)-3,4-dihydro-2H-benzo[b][1,4]thiazin-6-yl)-3-(1H-indol-3-yl)urea], with less than 1000 nM.
Regarding `O=C(Nc1ccc2c(c1)N(Cc1ccccc1)C(=O)CS2)Nc1c[nH]c2ccc(-c3cnn(C(F)F)c3)cc12` [Example 50, 1-(4-benzyl-3-oxo-3,4-dihydro-2H-benzo[b][1,4]thiazin-6-yl)-3-(5-(1-(difluoromethyl)-1H-pyrazol-4-yl)-1H-indol-3-yl)urea], the IC50 under setting [1] was less than 1000 nM.
On the same count and under the same terms, then `O=C(Nc1ccc2c(c1)N(Cc1ccccc1)CCS2)Nc1c[nH]c2ccc(F)cc12` [Example 99, 1-(4-benzyl-3,4-dihydro-2H-benzo[b][1,4]thiazin-6-yl)-3-(5-fluoro-1H-indol-3-yl)urea], with less than 1000 nM; and `CC1CN(Cc2cc(F)cc(Cl)c2)c2cc(NC(=O)Nc3c[nH]c4ccc(F)cc34)ccc2S1` (stereo not shown) [Example 111, 1-(4-(3-chloro-5-fluorobenzyl)-2-methyl-3,4-dihydro-2H-benzo[b][1,4]thiazin-6-yl)-3-(5-fluoro-1H-indol-3-yl)urea], with less than 1000 nM.
The same measure, in the same setting: as for `O=C(Nc1ccc2c(c1)N(Cc1ccccc1)C(=O)CS2)Nc1c[nH]c2ccc(-c3cccc(OC(F)(F)F)c3)cc12` [Example 58, 1-(4-benzyl-3-oxo-3,4-dihydro-2H-benzo[b][1,4]thiazin-6-yl)-3-(5-(3-(trifluoromethoxy)phenyl)-1H-indol-3-yl)urea], the figure is less than 1000 nM.
Regarding `CC1Sc2ccc(NC(=O)Nc3c[nH]c4ccccc34)cc2N(Cc2ccccc2)C1=O` (stereo not shown) [Example 35, 1-(4-benzyl-2-methyl-3-oxo-3,4-dihydro-2H-benzo[b][1,4]thiazin-6-yl)-3-(1H-indol-3-yl)urea], the IC50 (THP1-Dual cells preincubated with compound 10 minutes, stimulation with 5 μM 2′,3′-cGAMP for 20 hr, QUANTI-Luc readout of the supernatant) is less than 1000 nM.
With `O=C(Nc1ccc2c(c1)N(Cc1c(F)cccc1Cl)CCS2)Nc1c[nH]c2ccccc12` [Example 75, 1-(4-(2-chloro-6-fluorobenzyl)-3,4-dihydro-2H-benzo[b][1,4]thiazin-6-yl)-3-(1H-indol-3-yl)urea], the IC50 under setting [1] is less than 1000 nM.
The same measure, in the same setting: then `CC(C)n1cc(-c2ccc3[nH]cc(NC(=O)Nc4ccc5c(c4)N(Cc4ccccc4)C(=O)CS5)c3c2)cn1` [Example 59, 1-(4-benzyl-3-oxo-3,4-dihydro-2H-benzo[b][1,4]thiazin-6-yl)-3-(5-(1-isopropyl-1H-pyrazol-4-yl)-1H-indol-3-yl)urea], with less than 1000 nM; and `O=C(Nc1ccc2c(c1)N(Cc1c(F)cccc1Cl)C(=O)CO2)Nc1c[nH]c2ccccc12` [Example 8, 1-(4-(2-chloro-6-fluorobenzyl)-3-oxo-3,4-dihydro-2H-benzo[b][1,4]oxazin-6-yl)-3-(1H-indol-3-yl)urea], with less than 1000 nM.
The same measure, in the same setting: then `NC(=O)c1cccc(CN2C(=O)CSc3ccc(NC(=O)Nc4c[nH]c5ccccc45)cc32)c1` [Example 21, 3-((6-(3-(1H-indol-3-yl)ureido)-3-oxo-2,3-dihydro-4H-benzo[b][1,4]thiazin-4-yl)methyl)benzamide], with 1000 to 10000 nM.
